According to paper PMC5729429, “Gimatecan exerts potent antitumor activity against gastric cancer in vitro and in vivo via AKT and MAPK signaling pathways” (Journal of Translational Medicine, 2017):

How the values were obtained:
[1] = tested on: MGC803 cells; assay: Cell viability assay (CCK-8), MGC803; assay type: cell-based; settings: Homo sapiens, MGC-803, Fig. S1B 48 h exposure, 0–1 µM, read-out: IC50 antiproliferative effect
Description: Human GC cell lines SNU-1, HGC27 and MGC803 were purchased from Peking Union Medical College, and the NCI-N87 cell line was a gift from You-yong Lv, Ph.D. (Peking University Cancer Hospital and Institute). Cells were cultured in RPMI 1640 medium and Dulbecco’s Modified Eagle Medium (Gibco-BRL, MD, USA), respectively, supplemented with 10% fetal bovine serum (Gibco-BRL), 100 U/ml penicillin (Gibco-BRL) and […] streptomycin (Gibco-BRL). Cells were incubated in a humidified incubator (37 °C) supplemented with 5% CO2.
[…] Cell viability was measured using a Cell Counting Kit-8 (Dojindo, Kumamoto, Japan) according to the manufacturer’s instructions. Absorbance at 450 nm was measured using a microplate spectrophotometer. All experiments were repeated at least three times.

[2] = tested on: normal immortalized gastric epithelial cell line; assay: Growth inhibition of normal gastric epithelial cells; assay type: cell-based; settings: data not shown
[3] = tested on: AKT and MAPK signaling pathways; assay: Western blot of AKT and MAPK pathway molecules in GC cells; assay type: cell-based, human; settings: 48 h
Description: SNU-1, HGC27 and NCI-N87 cells were starved in serum-free medium overnight, exposed to inhibitors for 48 h and harvested at 70–80% confluence. Total protein was extracted from cells or xenograft tissues on ice, using RIPA Lysis Buffer (Beyotime, Shanghai, China) supplemented with complete protease inhibitor and phosphatase inhibitor cocktail (Roche, Basel, Switzerland). Protein concentration was measured using a BCA Protein Assay Kit (Beyotime, Shanghai, China), and 50 μg protein from each sample was separated by 10% SDS-PAGE. After transfer to nitrocellulose membranes (GE Healthcare, Piscataway, NJ), samples were incubated with corresponding primary antibodies diluted in 5% BSA at 4 °C overnight and then with secondary antibodies at room temperature for 1 h. Proteins were visualized with a chemiluminescent detection system (GE Healthcare), using ECL plus Western blot reagents (GE Healthcare). Western-blotting bands were quantified and normalized by ImageJ software.
Cells were starved in serum-free medium overnight, exposed to gimatecan or irinotecan for 48 h and harvested at 70–80% confluence. Total protein of SNU-1 and NCI-N87 was extracted and the expression of TopI, pAKT, pMEK, pERK, p-p38 MAPK and pJNK2 were assessed by western-blotting followed by quantification and normalization by ImageJ. All data are mean ± SD of three independent experiments. Compared with controls, *p < 0.05

CC[C@@]1(O)C(=O)OCc2c1cc1n(c2=O)Cc2c-1nc1ccccc1c2/C=N/OC(C)(C)C [Gimatecan, 7-t-butoxyiminomethylcamptothecin]
IC50 [1]: 3.29 nM | growth inhibition in normal cells [2]: weak growth inhibition | effect on AKT and MAPK pathway molecules ([3]; NCI-N87 cells): only inhibited expression of pAKT and pERK | effect on AKT and MAPK pathway molecules ([3]; SNU-1 and HGC27 cells, pAKT, pMEK, pERK inhibited, p-p38 and pJNK2 upregulated): significantly inhibited the AKT pathway and activated the JNK2 and p38 MAPK pathway
